One molecule from the NIST ThermoML archive (doi:10.1016/j.jct.2010.04.006) can be followed below.

For data set [1] the following is noted: Crystal; DTA.
Data set [2] is described as follows: Molar enthalpy of transition or fusion. As to conditions: Crystal; DSC.

Each structure is given as a SMILES string. ± gives the expanded uncertainty stated by the source.

Turning to `O=C1Cc2ccccc2N1` [indolin-2-one], the Normal melting temperature in data set [1] worked out at 125.71 ± 0.5 °C. For the same molecule, in data set [2], the “Molar enthalpy of transition or fusion” value was 4.48 ± 0.136 kcal/mol.
